Measurements from ChEMBL document CHEMBL3046227, “Synthesis and evaluation in vitro of 1-[2-(10-dihydroartemisininoxy) ethyl]-3-phenylurea derivatives as potential agents against cancer” (Med Chem Res, 2013).

Legend:
HeLa = experiment: Cytotoxicity against Homo sapiens (human) HeLa cells after 48 hr by MTT assay; type: functional, cell-based
HCT-116 [1] = experiment: Cytotoxicity against Homo sapiens (human) HCT116 cells after 48 hr by MTT assay; type: functional, cell-based; details: HCT-116, 48 h
HT-1080 = experiment: Cytotoxicity against Homo sapiens (human) HT1080 cells after 48 hr by MTT assay; type: functional, cell-based; details: HT-1080, 48 h
A549 [2] = experiment: Ratio of dihydroartemisinin IC50 to compound IC50 for Homo sapiens (human) A549 cells; type: functional
U-937 = experiment: Cytotoxicity against Homo sapiens (human) U937 cells after 48 hr by MTT assay; type: functional, cell-based; details: U-937, 48 h
[3] = Cytotoxicity against Homo sapiens (human) A375-S2 cells after 48 hr by MTT assay; type: functional, cell-based; details: A375-S2, 48 h
K562 = experiment: Cytotoxicity against Homo sapiens (human) K562 cells after 48 hr by MTT assay; type: functional, cell-based; details: K562, 48 h
A549 [4] = experiment: Cytotoxicity against Homo sapiens (human) A549 cells after 48 hr by MTT assay; type: functional, cell-based; details: A549, 48 h
HepG2 = experiment: Cytotoxicity against Homo sapiens (human) HepG2 cells after 48 hr by MTT assay; type: functional, cell-based; details: HepG2, 48 h
HL-60 = experiment: Cytotoxicity against Homo sapiens (human) HL60 cells after 48 hr by MTT assay; type: functional, cell-based; details: HL-60, 48 h
HCT-116 [5] = experiment: Ratio of dihydroartemisinin IC50 to compound IC50 for Homo sapiens (human) HCT116 cells; type: functional
MCF7 [6] = experiment: Cytotoxicity against Homo sapiens (human) MCF7 cells after 48 hr by MTT assay; type: functional, cell-based; details: MCF7, 48 h
MCF7 [7] = experiment: Ratio of dihydroartemisinin IC50 to compound IC50 for Homo sapiens (human) MCF7 cells; type: functional

| SMILES | IC50 (HeLa) | IC50 (HCT-116 [1]) | IC50 (HT-1080) | Ratio IC50 (A549 [2]) | IC50 (U-937) | IC50 [3] | IC50 (K562) | IC50 (A549 [4]) | IC50 (HepG2) | IC50 (HL-60) | Ratio IC50 (HCT-116 [5]) | IC50 (MCF7 [6]) | Ratio IC50 (MCF7 [7]) |
| --- | --- | --- | --- | --- | --- | --- | --- | --- | --- | --- | --- | --- | --- |
| Cc1ccc(C)c(NC(=O)NCCO[C@H]2O[C@@H]3O[C@@]4(C)CC[C@H]5[C@H](C)CC[C@@H]([C@H]2C)[C@@]35OO4)c1 | 31 µM | 47.5 µM | > 100 µM | 1.2 | 2.51 µM | > 100 µM | 23 µM | 33.7 µM | 23.2 µM | < 1 µM | 1.7 | 42.2 µM |  |
| C[C@H]1[C@H](OCCNC(=O)Nc2ccc(C(F)(F)F)cc2)O[C@@H]2O[C@@]3(C)CC[C@H]4[C@H](C)CC[C@@H]1[C@@]24OO3 | 31.7 µM | 46.4 µM | > 100 µM | 1.2 | < 1 µM | > 100 µM | 26.1 µM | 37.1 µM | 11.7 µM | < 1 µM | 1.7 | > 100 µM |  |
| C[C@H]1[C@@H](OCCNC(=O)Nc2ccc(F)cc2)O[C@@H]2O[C@@]3(C)CC[C@H]4[C@H](C)CC[C@@H]1[C@@]24OO3 | 35.2 µM | 43.7 µM | 26.8 µM | 1.2 | 25.2 µM | 33.7 µM | 38.4 µM | 43.7 µM | 26.2 µM | 3.64 µM | 1.7 | 46.8 µM |  |
| Cc1ccccc1NC(=O)NCCO[C@H]1O[C@@H]2O[C@@]3(C)CC[C@H]4[C@H](C)CC[C@@H]([C@H]1C)[C@@]24OO3 | 64.7 µM | 53.8 µM | > 100 µM | 1.2 | 16.2 µM | > 100 µM | 29.4 µM | 41.7 µM | 53.2 µM | 2.11 µM | 1.7 | 88.9 µM |  |
| C[C@H]1[C@@H](OCCNC(=O)Nc2ccc(Br)cc2)O[C@@H]2O[C@@]3(C)CC[C@H]4[C@H](C)CC[C@@H]1[C@@]24OO3 | 18.2 µM | 26.7 µM | > 100 µM | 1.2 | 5.2 µM | > 100 µM | 27.6 µM | 34.2 µM | 23.2 µM | < 1 µM | 1.7 | 25.6 µM |  |
| C[C@H]1[C@H](OCCNC(=O)Nc2ccc(Cl)cc2)O[C@@H]2O[C@@]3(C)CC[C@H]4[C@H](C)CC[C@@H]1[C@@]24OO3 | 19.7 µM | 37.8 µM | 40.3 µM | 1.2 | 2.6 µM | 9.25 µM | 37.9 µM | 35.5 µM | 16.6 µM | < 1 µM | 1.7 | 25.9 µM |  |
| C[C@H]1[C@@H](OCCNC(=O)Nc2ccc([N+](=O)[O-])cc2)O[C@@H]2O[C@@]3(C)CC[C@H]4[C@H](C)CC[C@@H]1[C@@]24OO3 | 23 µM | 44.4 µM | 29.8 µM | 1.2 | 7.75 µM | 35.9 µM | 32.1 µM | 53 µM | 39.6 µM | 1.2 µM | 1.7 | 42.2 µM |  |
| COc1ccc(NC(=O)NCCO[C@H]2O[C@@H]3O[C@@]4(C)CC[C@H]5[C@H](C)CC[C@@H]([C@H]2C)[C@@]35OO4)cc1 | 61.5 µM | 50.7 µM | > 100 µM | 1.2 | 23.7 µM | > 100 µM | 55.8 µM | 63.2 µM | 46.2 µM | 2.53 µM | 1.7 | > 100 µM |  |
| C[C@H]1[C@@H](OCCNC(=O)Nc2ccc(C(F)(F)F)cc2)O[C@@H]2O[C@@]3(C)CC[C@H]4[C@H](C)CC[C@@H]1[C@@]24OO3 | 16.6 µM | 31.3 µM | > 100 µM | 1.2 | 1.1 µM | > 100 µM | 6.97 µM | 29.5 µM | 11.2 µM | < 1 µM | 1.7 | 11.6 µM | 4 |
| C[C@H]1[C@H](OCCNC(=O)Nc2ccc([N+](=O)[O-])cc2)O[C@@H]2O[C@@]3(C)CC[C@H]4[C@H](C)CC[C@@H]1[C@@]24OO3 | 64.2 µM | 41 µM | > 100 µM | 1.2 | 9.26 µM | > 100 µM | > 100 µM | 49.6 µM | 34.3 µM | < 1 µM | 1.7 | 94.7 µM |  |
| C[C@H]1[C@@H](O)O[C@@H]2O[C@@]3(C)CC[C@H]4[C@H](C)CC[C@@H]1[C@@]24OO3 [ARTENIMOL] | 8.85 µM | 95.4 µM | 49.1 µM |  | < 1 µM | 5.48 µM | 9.81 µM | 76.2 µM | 30.1 µM | < 1 µM |  | 50.2 µM |  |
| C[C@H]1[C@@H](OCCNC(=O)Nc2ccc(Cl)cc2)O[C@@H]2O[C@@]3(C)CC[C@H]4[C@H](C)CC[C@@H]1[C@@]24OO3 | 20.6 µM | 39.5 µM | 43.9 µM | 1.2 | 9.99 µM | 41 µM | 32.5 µM | 42 µM | 36.3 µM | < 1 µM | 1.7 | 32.8 µM |  |
| C[C@H]1[C@H](OCCNC(=O)Nc2ccc(Br)cc2)O[C@@H]2O[C@@]3(C)CC[C@H]4[C@H](C)CC[C@@H]1[C@@]24OO3 | 23.9 µM | 35 µM | 35.2 µM | 1.2 | < 1 µM | 23.9 µM | 34.6 µM | 39.4 µM | 24.3 µM | < 1 µM | 1.7 | 25.9 µM |  |
| C[C@H]1[C@@H](OCCNC(=O)Nc2ccccc2)O[C@@H]2O[C@@]3(C)CC[C@H]4[C@H](C)CC[C@@H]1[C@@]24OO3 | 25.1 µM | 53.8 µM | > 100 µM | 1.2 | 6.06 µM | > 100 µM | 25 µM | 63.3 µM | 34 µM | 3 µM | 1.7 | 43.7 µM |  |
| Cc1c(Cl)cccc1NC(=O)NCCO[C@H]1O[C@@H]2O[C@@]3(C)CC[C@H]4[C@H](C)CC[C@@H]([C@H]1C)[C@@]24OO3 | 25.7 µM | 22.7 µM | > 100 µM | 1.2 | 2.59 µM | > 100 µM | 9.45 µM | 26.2 µM | 40.6 µM | < 1 µM | 1.7 | 36.8 µM |  |
